According to US12459899B2, “Isoquinolinone derivatives, method for preparing the same, and pharmaceutical composition for preventing or treating poly(ADP-ribose) polymerase-1-related diseases, comprising the same as active ingredient” (DIGMBIO. INC., priority 2019, dated 2025):

Target: PARP-1 (poly[ADP-ribose] polymerase 1) enzyme (Homo sapiens (Human), UniProt P09874)
Experiment: PARP-1 (poly[ADP-ribose] polymerase 1) enzyme inhibitory ability, Trevigen assay kit
Format: biochemical
Details: for inhibition at 0.001 µM: 1 nM compound, read-out: PAR P-1 Inhibitory ability at 1 nM; for IC50: PARP-1 enzyme activity
Procedure, shortened: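 Human PARP-1 activity was measured with a Trevigen assay kit in histone-coated 96-well plates rehydrated with 50 μL of 1×PARP buffer for 30 minutes. Enzyme (0.5 unit/well) and compound were preincubated 10 minutes at room temperature, then 25 μL of 1×PARP cocktail with biotinylated NAD and activated DNA was added for 1 hour.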

Sequence of PARP-1 (poly[ADP-ribose] polymerase 1) enzyme (P09874 whole entry): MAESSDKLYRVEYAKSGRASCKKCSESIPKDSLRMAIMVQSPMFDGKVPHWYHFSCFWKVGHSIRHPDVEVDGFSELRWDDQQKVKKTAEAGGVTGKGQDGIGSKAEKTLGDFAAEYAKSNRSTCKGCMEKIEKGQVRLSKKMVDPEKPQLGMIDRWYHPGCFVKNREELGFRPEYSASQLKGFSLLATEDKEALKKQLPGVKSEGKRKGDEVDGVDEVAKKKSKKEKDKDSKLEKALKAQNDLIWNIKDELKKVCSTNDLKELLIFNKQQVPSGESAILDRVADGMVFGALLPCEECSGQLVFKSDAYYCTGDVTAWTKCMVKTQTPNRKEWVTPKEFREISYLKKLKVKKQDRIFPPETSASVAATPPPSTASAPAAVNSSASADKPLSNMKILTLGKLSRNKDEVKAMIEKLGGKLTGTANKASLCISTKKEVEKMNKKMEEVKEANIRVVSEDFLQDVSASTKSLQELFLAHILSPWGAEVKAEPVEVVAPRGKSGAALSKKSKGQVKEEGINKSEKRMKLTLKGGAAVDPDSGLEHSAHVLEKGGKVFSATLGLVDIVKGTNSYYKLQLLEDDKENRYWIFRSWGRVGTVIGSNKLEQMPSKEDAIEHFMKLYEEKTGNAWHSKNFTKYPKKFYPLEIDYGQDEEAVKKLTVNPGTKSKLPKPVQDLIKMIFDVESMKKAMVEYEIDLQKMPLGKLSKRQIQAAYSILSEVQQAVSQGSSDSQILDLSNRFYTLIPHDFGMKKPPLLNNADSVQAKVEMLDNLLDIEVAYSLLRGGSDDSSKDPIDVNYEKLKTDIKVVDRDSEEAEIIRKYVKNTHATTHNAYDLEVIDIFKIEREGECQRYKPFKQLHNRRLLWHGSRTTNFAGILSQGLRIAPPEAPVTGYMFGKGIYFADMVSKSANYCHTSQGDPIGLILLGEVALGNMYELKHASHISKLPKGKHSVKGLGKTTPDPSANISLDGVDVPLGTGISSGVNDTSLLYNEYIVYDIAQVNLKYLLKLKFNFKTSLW

SMILES | inhibition at 0.001 µM [%] | IC50 [nM]
N#Cc1ccc(N2CCN(C(=O)CCc3cc4ncccc4c(=O)[nH]3)CC2)cc1 [Example 241, 4-(4-(3-(5-oxo-5,6-dihydro-1,6-naphthyridin-7-yl)propanoyl)piperazin-1-yl)benzonitrile] | 50 to 80 | 4.92
N#Cc1ccc(N2CCN(C(=O)CCc3cc4ncccc4c(=O)[nH]3)CC2)nc1 [Example 242, 6-(4-(3-(5-oxo-5,6-dihydro-1,6-naphthyridin-7-yl)propanoyl)piperazin-1-yl)nicotinonitrile] | < 50 | 3.18
N#Cc1ccc(N2CCN(C(=O)CCc3cc4ncccc4c(=O)[nH]3)CC2)cn1 [Example 243, 5-(4-(3-(5-oxo-5,6-dihydro-1,6-naphthyridin-7-yl)propanoyl)piperazin-1-yl)picolinonitrile] | < 50 | 
O=C(CCc1cc2ncccc2c(=O)[nH]1)N1CC=C(c2ccc(F)cc2)CC1 [Example 244, 7-(3-(4-(4-fluorophenyl)-3,6-dihydropyridin-1(2H)-yl)-3-oxopropyl)-1,6-naphthyridin-5(6H)-one] | < 50 | 
N#Cc1ccc(C2=CCN(C(=O)CCc3cc4ncccc4c(=O)[nH]3)CC2)cc1 [Example 245, 4-(1-(3-(5-oxo-5,6-dihydro-1,6-naphthyridin-7-yl)propanoyl)-1,2,3,6-tetrahydropyridin-4-yl)benzonitrile] | < 50 | 
N#Cc1ccc(N2CC3CCC(C2)N3C(=O)CCc2cc3ncccc3c(=O)[nH]2)cc1 [Example 246, 4-(8-(3-(5-oxo-5,6-dihydro-1,6-naphthyridin-7-yl)propanoyl)-3,8-diazabicyclo[3.2.1]octan-3-yl)benzonitrile] | < 50 | 
N#Cc1ccc(NC2CCN(CCCc3cc4cccc(F)c4c(=O)[nH]3)CC2)cc1 [Example 247, 4-((1-(3-(8-fluoro-1-oxo-1,2-dihydroisoquinolin-3-yl)propyl)piperidin-4-yl)amino)benzonitrile] | 50 to 80 | 
N#Cc1ccc(NC2CCN(CCCc3cc4cccc(F)c4c(=O)[nH]3)CC2)cn1 [Example 248, 5-((1-(3-(8-fluoro-1-oxo-1,2-dihydroisoquinolin-3-yl)propyl)piperidin-4-yl)amino)picolinonitrile] | < 50 | 
N#Cc1ccc(NC2CCN(CCCc3cc4ccc(F)cc4c(=O)[nH]3)CC2)cc1 [Example 249, 4-((1-(3-(7-fluoro-1-oxo-1,2-dihydroisoquinolin-3-yl)propyl)piperidin-4-yl)amino)benzonitrile] | < 50 | 
N#Cc1ccc(NC2CCN(CCCc3cc4ncccc4c(=O)[nH]3)CC2)cc1 [Example 250, 4-((1-(3-(5-oxo-5,6-dihydro-1,6-naphthyridin-7-yl)propyl)piperidin-4-yl)amino)benzonitrile] | < 50 | 
N#Cc1ccc(NC2CCN(CCCc3cc4ncccc4c(=O)[nH]3)CC2)cn1 [Example 251, 5-((1-(3-(5-oxo-5,6-dihydro-1,6-naphthyridin-7-yl)propyl)piperidin-4-yl)amino)picolinonitrile] | < 50 | 
COC(=O)c1ccc(NC2CCN(CCCc3cc4ncccc4c(=O)[nH]3)CC2)cc1 [Example 252, methyl 4-((1-(3-(5-oxo-5,6-dihydro-1,6-naphthyridin-7-yl)propyl)piperidin-4-yl)amino)benzoate] | < 50 | 
O=c1[nH]c(CCCN2CCC(Nc3ccc(C(F)(F)F)cc3)CC2)cc2ncccc12 [Example 253, 7-(3-(4-((4-(trifluoromethyl)phenyl)amino)piperidin-1-yl)propyl)-1,6-naphthyridin-5(6H)-one] | < 50 | 
N#Cc1ccc(OC2CCN(CCCc3cc4cccc(F)c4c(=O)[nH]3)CC2)cc1 [Example 254, 4-((1-(3-(8-fluoro-1-oxo-1,2-dihydroisoquinolin-3-yl)propyl)piperidin-4-yl)oxy)benzonitrile] | < 50 | 
N#Cc1ccc(OC2CCN(C(=O)CCc3cc4cccc(F)c4c(=O)[nH]3)CC2)cc1 [Example 255, 4-((1-(3-(8-fluoro-1-oxo-1,2-dihydroisoquinolin-3-yl)propanoyl)piperidin-4-yl)oxy)benzonitrile] | < 50 | 
N#Cc1ccc(NC2CCN(C(=O)CCc3cc4cccc(F)c4c(=O)[nH]3)CC2)cc1 [Example 256, 4-((1-(3-(8-fluoro-1-oxo-1,2-dihydroisoquinolin-3-yl)propanoyl)piperidin-4-yl)amino)benzonitrile] | < 50 | 
CN(c1ccc(C#N)cc1)C1CCN(C(=O)CCc2cc3cccc(F)c3c(=O)[nH]2)CC1 [Example 257, 4-((1-(3-(8-fluoro-1-oxo-1,2-dihydroisoquinolin-3-yl)propanoyl)piperidin-4-yl)(methyl)amino)benzonitrile] | < 50 | 
N#Cc1ccc(NC2CCN(C(=O)CCc3cc4cccc(F)c4c(=O)[nH]3)CC2)cn1 [Example 258, 5-((1-(3-(8-fluoro-1-oxo-1,2-dihydroisoquinolin-3-yl)propanoyl)piperidin-4-yl)amino)picolinonitrile] | < 50 | 
Cc1ccc(F)c2c(=O)[nH]c(CCC(=O)N3CCC(Nc4ccc(C#N)cc4)CC3)cc12 [Example 259, 4-((1-(3-(8-fluoro-5-methyl-1-oxo-1,2-dihydroisoquinolin-3-yl)propanoyl)piperidin-4-yl)amino)benzonitrile] | < 50 | 
Cc1cc(F)cc2c(=O)[nH]c(CCC(=O)N3CCC(Nc4ccc(C#N)cc4)CC3)cc12 [Example 260, 4-((1-(3-(7-fluoro-5-methyl-1-oxo-1,2-dihydroisoquinolin-3-yl)propanoyl)piperidin-4-yl)amino)benzonitrile] | < 50 | 
Cc1ccc(F)c2c(=O)[nH]c(CCC(=O)N3CCC(Oc4ccc(C#N)cc4)CC3)cc12 [Example 261, 4-((1-(3-(8-fluoro-5-methyl-1-oxo-1,2-dihydroisoquinolin-3-yl)propanoyl)piperidin-4-yl)oxy)benzonitrile] | < 50 | 
Cc1cc(F)cc2c(=O)[nH]c(CCC(=O)N3CCC(Oc4ccc(C#N)cc4)CC3)cc12 [Example 262, 4-((1-(3-(7-fluoro-5-methyl-1-oxo-1,2-dihydroisoquinolin-3-yl)propanoyl)piperidin-4-yl)oxy)benzonitrile] | < 50 | 
Cc1cc(F)cc2c(=O)[nH]c(CCC(=O)N3CCC(Nc4ccc(Cl)cc4)CC3)cc12 [Example 263, 3-(3-(4-((4-chlorophenyl)amino)piperidin-1-yl)-3-oxopropyl)-7-fluoro-5-methylisoquinolin-1(2H)-one] | < 50 | 
Cc1ccc(F)c2c(=O)[nH]c(CCC(=O)N3CCC(Nc4ccc(Cl)cc4)CC3)cc12 [Example 264, 3-(3-(4-((4-chlorophenyl)amino)piperidin-1-yl)-3-oxopropyl)-8-fluoro-5-methylisoquinolin-1(2H)-one] | < 50 | 
Cc1cc(F)cc2c(=O)[nH]c(CCC(=O)N3CCC(Nc4ccc(C(F)(F)F)cc4)CC3)cc12 [Example 265, 7-fluoro-5-methyl-3-(3-oxo-3-(4-((4-(trifluoromethyl)phenyl)amino)piperidin-1-yl)propyl)isoquinolin-1(2H)-one] | < 50 | 
Cc1ccc(F)c2c(=O)[nH]c(CCC(=O)N3CCC(Nc4ccc(C(F)(F)F)cc4)CC3)cc12 [Example 266, 8-fluoro-5-methyl-3-(3-oxo-3-(4-((4-(trifluoromethyl)phenyl)amino)piperidin-1-yl)propyl)isoquinolin-1(2H)-one] | < 50 | 
